# Measurements from PMC10762035, “Molecular basis of human trace amine-associated receptor 1 activation” (Nature Communications, 2024).
# Positions count from the first letter of the chain named. Values joined by “and” are separate entries in the source; they are usually repeats but may differ in a detail not shown here. Equal values may be shown once.
# Legend:
# Format in all cases: cell-based
# hTA1 C5S = target: T1, hTA1 C5S (Homo sapiens, UniProt Q96RJ0, C5S); experiment: GloSensor cAMP accumulation assay, C5S mutant; details: for C5S - Normalized Luminescence Counts (N=2): log[Compound], single wells
# T1 construct: expressed in transfected cells; host or cells: HEK293T
# T1 sequence (Q96RJ0 1-339 C5S): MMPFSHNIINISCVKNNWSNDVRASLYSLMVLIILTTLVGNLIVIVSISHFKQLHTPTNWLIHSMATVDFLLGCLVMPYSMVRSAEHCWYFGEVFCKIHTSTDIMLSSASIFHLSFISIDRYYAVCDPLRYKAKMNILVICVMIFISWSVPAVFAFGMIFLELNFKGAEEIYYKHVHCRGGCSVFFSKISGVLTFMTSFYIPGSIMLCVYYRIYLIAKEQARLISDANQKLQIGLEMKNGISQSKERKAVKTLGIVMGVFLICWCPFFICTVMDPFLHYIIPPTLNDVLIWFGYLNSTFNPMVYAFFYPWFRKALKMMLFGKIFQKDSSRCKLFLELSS
# hTA1 C88/178S = target: T2, hTA1 C88/178S (Homo sapiens, UniProt Q96RJ0, C178S/C88S); experiment: GloSensor cAMP accumulation assay, C88S/C178S double mutant; details: for Normalized Luminescence Counts (N=2): log[Compound], single replicate values
# T2 construct: expressed in transfected cells; host or cells: HEK293T
# T2 sequence (Q96RJ0 1-339 C88S/C178S): T1 sequence (Q96RJ0 1-339 C5S) with S5C, C88S, C178S
# hTA1 V184P = target: T3, hTA1 V184P (Homo sapiens, UniProt Q96RJ0, V184P); experiment: GloSensor cAMP accumulation assay, V184P mutant; details: for cAMP accumulation response, single replicate values (source data, Supplementary Figure 5): hTA1 V184P (N=2), log[Compound]
# T3 construct: expressed in transfected cells; host or cells: HEK293T
# T3 sequence (Q96RJ0 1-339 V184P): T1 sequence (Q96RJ0 1-339 C5S) with S5C, V184P
# [1] = C88S, C178S, each row is one independent experiment, 3 replicates
compound,measurement,setting,value
"NCCc1ccc(Oc2ccc(O)cc2)c(I)c1 [T1AM, 3-iodothyronamine]",Span ± SEM (Emax normalized to β-PEA),"hTA1 C5S; C5S, n=2",81.19 ± 8.03
same,pEC50 ± SEM,"hTA1 C5S; C5S, n=2",5.95 ± 0.04
same,EC50,"hTA1 C5S; C5S, n=2, read-out: EC50",1110 nM
same,"pEC50 values, Mean","hTA1 C5S; hTA1 C5S, mean of 3 replicates, one line per independent experiment",6.184 and 5.721
same,"Emax values, Mean","hTA1 C5S; hTA1 C5S, β-PEA = 100, mean of 3 replicates, one line per independent experiment",73.1551 and 89.2227
same,C5S - Normalized Luminescence Counts (N=2),hTA1 C5S; M = -5,66.8501 and 72.156 and 68.5661 and 75.0127 and 63.7584 and 82.7458
same,C5S - Normalized Luminescence Counts (N=2),hTA1 C5S; M = -5.522,58.0446 and 60.9798 and 52.4226 and 59.2704 and 49.2589 and 55.9562
same,Span ± SEM (Emax normalized to β-PEA),"hTA1 C88/178S; C88/178S, n=2",98.9 ± 13.16
same,pEC50 ± SEM,"hTA1 C88/178S; C88/178S, n=2",5.96 ± 0.05
same,EC50,"hTA1 C88/178S; C88/178S, n=2, read-out: EC50",1090 nM
same,"pEC50 values, Mean",hTA1 C88/178S; [1],6.084 and 5.841
same,"ΔEmax values (each mutant value - WT average), Mean",hTA1 C88/178S; [1],15.2915 and 41.6133
same,"ΔpEC50 values (each mutant value - WT average), Mean",hTA1 C88/178S; [1],-0.04547 and -0.2881
same,Normalized Luminescence Counts (N=2),"hTA1 C88/178S; C88S, C178S, M = -5",73.2176 and 97.3588 and 72.5957 and 103.925 and 90.4821 and 104.378
same,Normalized Luminescence Counts (N=2),"hTA1 C88/178S; C88S, C178S, M = -5.522",67.1681 and 64.6805 and 64.737 and 67.222 and 55.8941 and 86.253
same,Normalized Luminescence Counts (N=2),"hTA1 C88/178S; C88S, C178S, M = -6",53.4297 and 44.4403 and 51.5074 and 51.9671 and 38.3735 and 50.6077
same,Normalized Luminescence Counts (N=2),"hTA1 C88/178S; C88S, C178S, M = -6.522",23.5782 and 23.1825 and 20.8079 and 20.0978 and 14.6604 and 27.0456
same,Normalized Luminescence Counts (N=2),"hTA1 C88/178S; C88S, C178S, M = -7",11.3097 and 9.048 and 12.1012 and 6.655 and 6.504 and 10.7333
same,Normalized Luminescence Counts (N=2),"hTA1 C88/178S; C88S, C178S, M = -7.522",2.433 and 2.8292 and 3.225 and 0.6137 and -1.652 and -0.1415
same,Normalized Luminescence Counts (N=2),"hTA1 C88/178S; C88S, C178S, M = -8",0.6808 and 0.7373 and 1.19 and -0.1415 and -0.2925 and 0.9158
same,Normalized Luminescence Counts (N=2),"hTA1 C88/178S; C88S, C178S, M = -8.522",0.7373 and 0.7939 and 0.285 and -1.501 and 0.1606 and -0.4436
same,Normalized Luminescence Counts (N=2),"hTA1 C88/178S; C88S, C178S, M = -9",0.4547 (2×) and 1.981 and -1.199 and -2.558 and -1.652
same,Normalized Luminescence Counts (N=2),"hTA1 C88/178S; C88S, C178S, M = -9.522",0.285 (2×) and 0.2285 and -0.4436 and -2.105 and -1.199
same,Normalized Luminescence Counts (N=2),"hTA1 C88/178S; C88S, C178S, M = -10",1.19 and 0.0589 and 2.2073 and 0.4627 and 0.3116 and -0.1415
same,Normalized Luminescence Counts (N=2),"hTA1 C88/178S; C88S, C178S, M = -10.522",1.077 and 0.285 and 1.1331 and 0.1606 and -2.86 and -1.652
same,Normalized Luminescence Counts (N=2),"hTA1 C88/178S; C88S, C178S, M = -11",1.529 and 0.9635 and 0.2285 and -1.048 and -1.35 and -1.652
same,Normalized Luminescence Counts (N=2),"hTA1 C88/178S; C88S, C178S, M = -11.522",1.19 and 1.246 and 0.4547 and -0.5946 and -1.199 (2×)
same,Normalized Luminescence Counts (N=2),"hTA1 C88/178S; C88S, C178S, M = -12",0.3981 and 0.172 and 1.981 and -1.501 and -1.048 and -0.2925
same,Normalized Luminescence Counts (N=2),"hTA1 C88/178S; C88S, C178S, M = -12.522",1.1331 and 2.773 and 1.19 and -0.1415 and -1.35 and -0.8967
same,"Emax values, Mean","hTA1 C88/178S; C88S, C178S, normalized (β-PEA = 100), each row is one independent experiment, 3 replicates",85.7378 and 112.06
same,Span ± SEM (Emax normalized to β-PEA),"hTA1 V184P; V184P, n=2",70.26
same,pEC50 ± SEM,"hTA1 V184P; V184P, n=2",6.27 ± 0.05
same,EC50,"hTA1 V184P; V184P, n=2, read-out: EC50",539 nM
same,"cAMP accumulation response, single replicate values (source data, Supplementary Figure 5)",hTA1 V184P; M = -5,47.1774 and 43.1039 and 48.2443 and 102.347 and 62.5054 and 96.189
same,"cAMP accumulation response, single replicate values (source data, Supplementary Figure 5)",hTA1 V184P; M = -5.522,32.0474 and 39.1275 and 36.5088 and 86.7693 and 72.5115 and 76.5066
same,"cAMP accumulation response, single replicate values (source data, Supplementary Figure 5)",hTA1 V184P; M = -6,40.0973 and 27.683 and 25.5492 and 73.6844 and 54.6984 and 67.6001
same,"cAMP accumulation response, single replicate values (source data, Supplementary Figure 5)",hTA1 V184P; M = -6.522,14.9776 and 12.068 and 13.8138 and 37.1052 and 29.2983 and 35.6391
same,"cAMP accumulation response, single replicate values (source data, Supplementary Figure 5)",hTA1 V184P; M = -7,5.085 and 5.182 and 3.9211 and 15.2237 and 21.0881 and 16.0667
same,"cAMP accumulation response, single replicate values (source data, Supplementary Figure 5)",hTA1 V184P; M = -7.522,-0.4433 and -1.4132 and 0.1386 and 3.678 and 3.238 and 3.861
